These results are taken from US20240389846A1, “Methods for Localization of Cancerous Tissue Using Fluorescent Molecular Imaging Agent for Diagnosis or Treatment” (Vergent Bioscience, Inc., priority 2022, published 2024).

In one experiment the test system is cancerous tissue. Nature of the experiment: Preclinical / animal model studies: duration of VGT-309 fluorescence in tissue after administration. The experiment is classed as in vivo. The text has this:
There are several molecular imaging agents that are currently in various stages of development and testing, but of these agents VGT-309 is particularly advantageous. VGT-309 targets and covalently binds to cathepsin targets, which are present in larger amounts in solid tumors and tumor margins than in normal tissues. When this binding occurs, the quencher is cleaved from the molecule and VGT-309 becomes “active” at which point the tumor will fluoresce under near-infrared (NIR) light.

For experiment [1], the system named is tumor. Nature of the experiment: Intraoperative NIR imaging of patients given intravenous VGT-309 before surgery (Examples 1-3). In kind it is in vivo, human.
For experiment [2], the system named is tumor. Nature of the experiment: Phase 2 study: clinically significant events (CSEs) during tumor removal with imaging agent and NIR. To be noted: Phase 2 study of VGT-309 in Australia. In kind it is in vivo, human. The text has this: CSEs are one way to measure whether an imaging agent, such as VGT-309, adds a clinical benefit to the diagnosis and treatment process. In this context, CSEs generally fall into one of three categories: (1) localization of hard-to-find tumors, (2) identification of positive resection margins, and (3) identification of additional primary and metastatic lesions that were not previously detected using existing technologies.

SMILES strings stand for the structures.

For the molecule `CC1(C)C(/C=C/C2=C(Cl)C(=C/C=C3/N(CCCCCC(=O)NCCNC(=O)c4c(F)c(F)c(OCC(=O)[C@H](CCCCNC(=O)CCCCCN5/C(=C/C=C/C=C/C=C\C6=[N+](CCCCS(=O)(=O)[O-])c7ccc8ccccc8c7C6(C)C)C(C)(C)c6c5ccc5ccccc65)NC(=O)[C@H](Cc5ccccc5)NC(=O)OCc5ccccc5)c(F)c4F)c4ccc5cc(S(=O)(=O)O)ccc5c4C3(C)C)/CCC2)=[N+](CCCS(=O)(=O)[O-])c2ccc(N(CCCS(=O)(=O)O)CCCS(=O)(=O)O)cc21` [VGT-309], the “time VGT-309 may continue to emit a signal in tissue following administration” value with cancerous tissue (animal model studies suggest) is reported as “out to seven days”. Also, the “time window after administration in which VGT-309 can fluoresce cancerous tissue” value with cancerous tissue (based on preclinical studies, under NIR light) was “two hours to four days”. For the same molecule, the “visualization of tumor under NIR imaging” value with tumor [1] (Example 1, patient, 0.32 mg/kg approximately 21 hours prior to surgery) is “clearly show the location and extent of the tumor”. Moreover, in the experiment with tumor [1] (Example 2, patient, 0.16 mg/kg approximately 21 hours prior to surgery), the “localization of primary tumor under NIR” value is “more easily locate the primary tumor”. Also, in the experiment with tumor [1] (Example 2, patient, 0.16 mg/kg approximately 21 hours prior to surgery, biopsy confirmed that the cancer had spread), the “detection of lymph node spread by fluorescence under NIR” value is given as “unexpected fluorescence in a more distant lymph node”. Besides, the “identification of previously identified (primary) tumor” value with tumor [1] (Example 3, patient with regrowth after radiation, 0.32 mg/kg approximately 18.5 hours prior to surgery) was “able to quickly identify and remove the previously identified tumor”. In the experiment on tumor [1] (Example 3, patient, 0.32 mg/kg approximately 18.5 hours prior to surgery, abnormal lung tissue confirmed cancerous under NIR), the “identification of additional tumors (metastatic spread) using NIR” value is given as “able to identify additional tumors using NIR”. The “fraction of patients who experienced a clinically significant event (CSE)” value in the experiment on tumor [2] is given as “one third”.
